Laboratory results from patent US8536332B2, “Modulating signal transduction pathways with substituted pyridol [2,3-b] pyrazines” (Aeterna Zentaris GmbH, priority 2007, dated 2013).

Compound | melting point [°C]
COc1cc(-c2ccc3ncc(NC(=O)NC4CCCCCCCCCCC4)nc3n2)ccc1O [Compound 628, 1-Cyclododecyl-3-[6-(4-hydroxy-3-methoxy-phenyl)-pyrido[2,3-b]pyrazin-3-yl]-urea] | 233 to 235
COc1cc(-c2ccc3ncc(NC(=O)NCCCc4ccccc4)nc3n2)ccc1O [Compound 629, 1-[6-(4-Hydroxy-3-methoxy-phenyl)-pyrido[2,3-b]pyrazin-3-yl]-3-(3-phenyl-propyl)-urea] | 233 to 236
COc1cc(-c2ccc3ncc(NC(=O)NCCCCc4ccccc4)nc3n2)ccc1O [Compound 630, 1-[6-(4-Hydroxy-3-methoxy-phenyl)-pyrido[2,3-b]pyrazin-3-yl]-3-(4-phenyl-butyl)-urea] | 208 to 210
CCCCNC(=O)Nc1cnc2ccc(-c3ccc(O)c(OC)c3)nc2n1 [Compound 631, 1-Butyl-3-[6-(4-hydroxy-3-methoxy-phenyl)-pyrido[2,3-b]pyrazin-3-yl]-urea] | 223 to 226
CCN(CC)C(=O)Nc1cnc2ccc(-c3ccc(O)c(OC)c3)nc2n1 [Compound 632, 1,1-Diethyl-3-[6-(4-hydroxy-3-methoxy-phenyl)-pyrido[2,3-b]pyrazin-3-yl]-urea] | 214 to 216
COc1cc(-c2ccc3ncc(NC(=O)N(C)c4ccc(C(C)C)cc4)nc3n2)ccc1O [Compound 635, 3-[6-(4-Hydroxy-3-methoxy-phenyl)-pyrido[2,3-b]pyrazin-3-yl]-1-(4-isopropyl-phenyl)-1-methyl-urea] | 226 to 228
CCNC(=O)Nc1cnc2ccc(-c3cc(C)cc(Br)c3OC)nc2n1 [Compound 639, 1-[6-(3-Bromo-2-methoxy-5-methyl-phenyl)-pyrido[2,3-b]pyrazin-3-yl]-3-ethyl-urea] | 250 to 252
CCNC(=O)Nc1cnc2ccc(-c3ccc(OC(F)(F)F)c(F)c3)nc2n1 [Compound 640, 1-Ethyl-3-[6-(3-fluoro-4-trifluoromethoxy-phenyl)-pyrido[2,3-b]pyrazin-3-yl]-urea] | 262
CCNC(=O)Nc1cnc2ccc(-c3ccc(O)c(Br)c3)nc2n1 [Compound 641, 1-[6-(3-Bromo-4-hydroxy-phenyl)-pyrido[2,3-b]pyrazin-3-yl]-3-ethyl-urea] | 291
CCNC(=O)Nc1cnc2ccc(-c3cc(C)c(O)c(Cl)c3)nc2n1 [Compound 642, 1-[6-(3-Chloro-4-hydroxy-5-methyl-phenyl)-pyrido[2,3-b]pyrazin-3-yl]-3-ethyl-urea] | 266
CCNC(=O)Nc1cnc2ccc(-c3ccc(C(=O)O)c(O)c3)nc2n1 [Compound 644] | 225
CCNC(=S)Nc1cnc2ccc(-c3cc(OC)c(OC)c(OC)c3)nc2n1 [Compound 650, 1-Ethyl-3-[6-(3,4,5-trimethoxy-phenyl)-pyrido[2,3-b]pyrazin-3-yl]-thiourea] | 218 to 219
CCNC(=S)Nc1cnc2ccc(-c3ccc(C)cc3)nc2n1 [Compound 651, 1-Ethyl-3-(6-p-tolyl-pyrido[2,3-b]pyrazin-3-yl)-thiourea] | 230 to 231
COc1cc(-c2ccc3ncc(NC(=S)NC(C)(C)C)nc3n2)ccc1O [Compound 652, 1-tert-Butyl-3-[6-(4-hydroxy-3-methoxy-phenyl)-pyrido[2,3-b]pyrazin-3-yl]-thiourea] | 213 to 215
COc1cc(-c2ccc3ncc(NC(=S)NC4CCCCCCC4)nc3n2)ccc1O [Compound 653, 1-Cyclooctyl-3-[6-(4-hydroxy-3-methoxy-phenyl)-pyrido[2,3-b]pyrazin-3-yl]-thiourea] | 250 to 251
COc1ccc(-c2ccc3ncc(NC(=O)c4ccccc4)nc3n2)cc1OC [Compound 660, N-[6-(3,4-Dimethoxy-phenyl)-pyrido[2,3-b]pyrazin-3-yl]-benzamide] | 168 to 170
COc1cc(Nc2cnc3ccc(NC(=S)NC4CCCCC4)nc3n2)cc(OC)c1OC [Compound 690, 1-Cyclohexyl-3-[3-(3,4,5-trimethoxy-phenylamino)-pyrido[2,3-b]pyrazin-6-yl]-thiourea] | 248

Other lines, results leading:

melting point [°C] | Compound
250 | COc1cc(Nc2cnc3ccc(NC(=S)NC4CCCCCCC4)nc3n2)cc(OC)c1OC [Compound 691, 1-Cyclooctyl-3-[3-(3,4,5-trimethoxy-phenylamino)-pyrido[2,3-b]pyrazin-6-yl]-thiourea]
258 to 261 | CNC(=S)Nc1ccc2ncc(Nc3cc(OC)c(OC)c(OC)c3)nc2n1 [Compound 692, 1-Methyl-3-[3-(3,4,5-trimethoxy-phenylamino)-pyrido[2,3-b]pyrazin-6-yl]-thiourea]
230 to 234 | C=CCNC(=S)Nc1ccc2ncc(Nc3cc(OC)c(OC)c(OC)c3)nc2n1 [Compound 693, 1-Allyl-3-[3-(3,4,5-trimethoxy-phenylamino)-pyrido[2,3-b]pyrazin-6-yl]-thiourea]
218 to 220 | COc1cc(Nc2cnc3ccc(NC(=S)NC(C)(C)C)nc3n2)cc(OC)c1OC [Compound 694, 1-tert-Butyl-3-[3-(3,4,5-trimethoxy-phenylamino)-pyrido[2,3-b]pyrazin-6-yl]-thiourea]
247 | COc1cc(Nc2cnc3ccc(NC(=S)Nc4c(C)noc4C)nc3n2)cc(OC)c1OC [Compound 695, 1-(3,5-Dimethyl-isoxazol-4-yl)-3-[3-(3,4,5-trimethoxy-phenylamino)-pyrido[2,3-b]pyrazin-6-yl]-thiourea]
347 | COc1cc(Nc2cnc3ccc(NC(=S)NCC4CCCCC4)nc3n2)cc(OC)c1OC [Compound 696, 1-Cyclohexylmethyl-3-[3-(3,4,5-trimethoxy-phenylamino)-pyrido[2,3-b]pyrazin-6-yl]-thiourea]
250 to 252 | COc1cc(Nc2cnc3ccc(NC(=S)NCc4ccccc4)nc3n2)cc(OC)c1OC [Compound 697, 1-Benzyl-3-[3-(3,4,5-trimethoxy-phenylamino)-pyrido[2,3-b]pyrazin-6-yl]-thiourea]
248 to 250 | COc1cc(Nc2cnc3ccc(NC(=S)NCc4ccc(C)cc4)nc3n2)cc(OC)c1OC [Compound 698, 1-(4-Methyl-benzyl)-3-[3-(3,4,5-trimethoxy-phenylamino)-pyrido[2,3-b]pyrazin-6-yl]-thiourea]
197 to 200 | COc1cc(Nc2cnc3ccc(NC(=S)NCCc4ccccc4)nc3n2)cc(OC)c1OC [Compound 699, 1-Phenethyl-3-[3-(3,4,5-trimethoxy-phenylamino)-pyrido[2,3-b]pyrazin-6-yl]-thiourea]
206 | COc1cc(Nc2cnc3ccc(NC(=S)NCCN4CCCCC4)nc3n2)cc(OC)c1OC [Compound 700, 1-(2-Piperidin-1-yl-ethyl)-3-[3-(3,4,5-trimethoxy-phenylamino)-pyrido[2,3-b]pyrazin-6-yl]-thiourea]
255 | COc1cc(Nc2cnc3ccc(NC(=S)NCc4ccc(F)cc4)nc3n2)cc(OC)c1OC [Compound 701, 1-(4-Fluoro-benzyl)-3-[3-(3,4,5-trimethoxy-phenylamino)-pyrido[2,3-b]pyrazin-6-yl]-thiourea]
210 | CCCCCNC(=S)Nc1ccc2ncc(Nc3cc(OC)c(OC)c(OC)c3)nc2n1 [Compound 702, 1-Pentyl-3-[3-(3,4,5-trimethoxy-phenylamino)-pyrido[2,3-b]pyrazin-6-yl]-thiourea]
